In one series the test system is T47D. In words: Antiproliferative activity against ER/PR positive human T47D cells after 24 hrs by MTT assay. It counts as functional, cell-based.
Series [1] can be described thus: Solubility of the compound in water after 24 hrs by shake-flask method. It counts as physicochemical.
Series [2] concerns MDA-MB-231. Put plainly: Antiproliferative activity against human MDA-MB-231 cells up to 72 hrs by MTT assay. The conditions noted are these: MDA-MB-231, 72 h. It counts as functional, cell-based.
The nature of series [3]: Solubility of the compound in ethanol after 24 hrs by shake-flask method. It counts as physicochemical. The conditions noted are these: 24 h.
Series [4] relates to MDA-MB-468. Put plainly: Antiproliferative activity against doxorubicin-resistant human MDA-MB-468 cells after 24 hrs by MTT assay. The conditions noted are these: MDA-MB-468, 24 h. The class given is functional, cell-based.
For series [5], the system named is Mus musculus. Put plainly: Toxicity in nu/nu mouse assessed as behavioral changes at 100 mg/kg, po administered once daily for 32 days measured during compound dosing. The class given is organism-based. The conditions noted are these: in vivo, 768 h.
The test system of another series is HCT-116. Put plainly: Antiproliferative activity against human HCT116 cells up to 72 hrs by MTT assay. It counts as functional, cell-based. The conditions noted are these: HCT-116, 72 h.
In series [6] the test system is Mus musculus. In words: Toxicity in nu/nu mouse assessed as changes in body weight at 100 mg/kg, po administered once daily for 32 days measured every 4 days during compound dosing. Particulars: in vivo. It counts as organism-based.
The next series concerns MCF7. Put plainly: Antiproliferative activity against ER/PR positive human MCF7 cells after 24 hrs by MTT assay. The class given is functional, cell-based. Particulars: MCF7, 24 h.
A further series concerns PC-3. In words: Antiproliferative activity against human PC3 cells up to 72 hrs by MTT assay. It counts as functional, cell-based. The conditions noted are these: PC-3, 72 h.
The next series concerns MDA-MB-157. In words: Antiproliferative activity against human MDA-MB-157 cells after 24 hrs by MTT assay. The class given is functional, cell-based. Particulars: MDA-MB-157, 24 h.
The test system of series [7] is Mus musculus. In words: Toxicity in nu/nu mouse assessed as effect on food consumption at 100 mg/kg, po administered once daily for 32 days measured during compound dosing. The class given is organism-based. The conditions noted are these: in vivo, 768 h.
The next series deals with MDA-MB-453. Put plainly: Antiproliferative activity against HER2 positive human MDA-MB-453 cells after 24 hrs by MTT assay. It counts as functional, cell-based. The conditions noted are these: MDA-MB-453, 24 h.
Another series deals with BT-474. Put plainly: Antiproliferative activity against HER2 positive human BT474 cells after 24 hrs by MTT assay. The class given is functional, cell-based. The conditions noted are these: BT-474, 24 h.
The subject of series [8] is MDA-MB-468. Put plainly: Antiproliferative activity against human MDA-MB-468 cells after 24 hrs by MTT assay. The class given is functional, cell-based. The conditions noted are these: MDA-MB-468, 24 h.
The next series relates to SK-BR-3. Put plainly: Antiproliferative activity against HER2 positive human SKBR3 cells after 24 hrs by MTT assay. The conditions noted are these: SK-BR-3, 24 h. It counts as functional, cell-based.
Another series deals with Hs-578T. Put plainly: Antiproliferative activity against human Hs578T cells after 24 hrs by MTT assay. It counts as functional, cell-based.
Series [9] relates to Mus musculus. In words: Acute-toxicity in nu/nu mouse assessed as behavioral changes at 500 mg/kg, po administered once daily for 5 days measured for 21 days. It counts as organism-based. Particulars: in vivo, 504 h.
For series [10], the system named is MDA-MB-231. In words: Potency index, ratio of curcumin IC50 to compound IC50 for human MDA-MB-231 cells. The class given is functional.
Series [11] relates to Mus musculus. In words: Acute-toxicity in nu/nu mouse assessed as changes in body weight at 500 mg/kg, po administered once daily for 5 days measured for 21 days. Particulars: in vivo, 504 h. It counts as organism-based.
Series [12] relates to MDA-MB-468. In words: Potency index, ratio of curcumin IC50 to compound IC50 for doxorubicin-resistant human MDA-MB-468 cells. The class given is functional.
Series [13] relates to Mus musculus. In words: Toxicity in nu/nu mouse assessed as change in body weight at 1 mg/kg, ip administered once daily for 32 days. It counts as organism-based. The conditions noted are these: in vivo, 768 h.
In series [14] the test system is Mus musculus. In words: Toxicity in nu/nu mouse assessed as behavioral changes at 1 mg/kg, ip administered once daily for 32 days. It counts as organism-based. Particulars: in vivo, 768 h.
Series [15] has as its system MDA-MB-231. Put plainly: Anti-tumor activity against human MDA-MB-231 cells xenografted in nu/nu mouse assessed as reduction in tumor weight at 1 mg/kg, ip administered once daily for 32 days. Details: scale not given: the % may be the effect or the level left. The class given is functional.
In series [16] the test system is Mus musculus. In words: Toxicity in nu/nu mouse assessed as hematological changes at 1 mg/kg, ip administered once daily for 32 days. The class given is organism-based. Particulars: in vivo, 768 h.

SMILES strings stand for the structures. ≈ marks a conversion by molar mass, not a printed value.

Turning to `COc1cc(/C=C/C(=O)CC(=O)/C=C/c2ccc(O)c(OC)c2)ccc1O` [CURCUMIN], the IC50 was determined as 47.9 µM in the series with T47D; 16.2 µM in the series with MDA-MB-231 [2]; 58.6 µM in the series with MDA-MB-468 [4]; 13.8 µM with HCT-116; 42.9 µM in the series on MCF7; 18.8 µM in the series on PC-3. The IC50 in the series on MDA-MB-157 is 40.4 µM; in the series on MDA-MB-453 it was 32.4 µM; with BT-474, 30.1 µM; with MDA-MB-468 [8] it was 42.9 µM; with SK-BR-3, 42.8 µM; in the series with Hs-578T it was 55.5 µM. This compound came in with a thermodynamic solubility at 24 h in series [1] of 0.6 µg/mL (≈ 1.63 µM). The compound further showed a solubility in [3] of 1860 µg/mL (≈ 5050 µM). Also, the Activity result with Mus musculus [5], in the series with Mus musculus [6] and in the series on Mus musculus [7] was “Non-Toxic” throughout.
For the compound `COc1cc(/C=C/C(=O)C(C)(C)C(=O)/C=C/c2ccc(OC(=O)C(C)(CO)CO)c(OC)c2)ccc1OC(=O)C(C)(CO)CO`, the Activity result in the series with Mus musculus [9] and in the series with Mus musculus [11] was “Non-Toxic” throughout. For the same compound, the IC50 in the series on MDA-MB-231 [2] came out at 1.98 µM; in the series on MDA-MB-468 [4], 5.71 µM; with HCT-116, 1.65 µM; with PC-3, 1.76 µM. Further, the “Ratio IC50” value was 2.4 - 12.2 with MDA-MB-231 [10] and 10 in the series on MDA-MB-468 [12].
Take `CC(CO)(CO)C(=O)Oc1ccc(/C=C/C(=O)/C=C(O)/C=C/c2ccc(OC(=O)C(C)(CO)CO)cc2)cc1`: the IC50 with MDA-MB-231 [2] is 6.74 µM; in the series on HCT-116, 4.1 µM; with PC-3, 5.59 µM. Besides, the “Ratio IC50” value with MDA-MB-231 [10] was 2.4 - 12.2.
In the case of `CCC(CO)(CO)C(=O)Oc1cc(/C=C/C(=O)/C=C(O)/C=C/c2ccc(OC)c(O)c2)ccc1OC`, the IC50 with MDA-MB-231 [2] came out at 3.85 µM; in the series on HCT-116, 3.64 µM; with PC-3, 7.03 µM. Besides, in the series on MDA-MB-231 [10], the “Ratio IC50” value is reported as 2.4 - 12.2.
As for `CC(CO)(CO)C(=O)Oc1ccc(/C=C/C(=O)/C=C(O)/C=C/c2ccc(O)cc2)cc1`, the IC50 was 1.33 µM in the series with MDA-MB-231 [2] and 5.22 µM in the series with PC-3. For the same compound, the “Ratio IC50” value in the series on MDA-MB-231 [10] came to 12.
Turning to `CCC(CO)(CO)C(=O)Oc1ccc(/C=C/C(=O)/C=C(O)/C=C/c2ccc(O)c(OC)c2)cc1OC`, the IC50 in the series on MDA-MB-231 [2] turned out to be 4.66 µM; in the series with HCT-116, 11.4 µM; in the series with PC-3, 12.5 µM. Further, the “Ratio IC50” value in the series with MDA-MB-231 [10] is 2.4 - 12.2.
Consider `COc1ccc(/C=C/C(=O)/C=C(O)/C=C/c2ccc(OC)c(OC(=O)C(C)(CO)CO)c2)cc1OC(=O)C(C)(CO)CO`, for which the results for the IC50 in the series with MDA-MB-231 [2], with HCT-116 and with PC-3 were 4.61 µM, 2.79 µM and 4.74 µM, respectively. Further, the “Ratio IC50” value in the series with MDA-MB-231 [10] came out at 3.5.
With `CCC(CO)(CO)C(=O)Oc1ccc(/C=C/C(=O)/C=C(O)/C=C/c2ccc(OC(=O)C(CC)(CO)CO)c(OC)c2)cc1OC`, the IC50 worked out at 2 µM in the series on MDA-MB-231 [2], 1.34 µM in the series with HCT-116 and 4.21 µM with PC-3. For the same compound, the “Ratio IC50” value with MDA-MB-231 [10] was 2.4 - 12.2.
For the compound `CC(CO)(CO)C(=O)Oc1ccc(/C=C/C(=O)C(C)(C)C(=O)/C=C/c2ccc(OC(=O)C(C)(CO)CO)cc2)cc1`, the results for the IC50 with MDA-MB-231 [2], in the series with HCT-116 and in the series on PC-3 were 2.98 µM, 2.63 µM and 3.62 µM, respectively. Also, the “Ratio IC50” value in the series on MDA-MB-231 [10] is on record as 2.4 - 12.2.
Consider `COc1ccc(/C=C/C(=O)C(C)(C)C(=O)/C=C/c2ccc(OC)c(OC(=O)C(C)(CO)CO)c2)cc1OC(=O)C(C)(CO)CO`, for which the IC50 in the series with MDA-MB-231 [2] turned out to be 2.7 µM. For the same compound, the “Ratio IC50” value in the series with MDA-MB-231 [10] was 2.4 - 12.2.
For the compound `COc1ccc(/C=C/C(O)=C/C(=O)/C=C/c2ccc(OC(=O)C(C)(CO)CO)c(OC)c2)cc1OC`, the IC50 with MDA-MB-231 [2] came out at 2.55 µM; with HCT-116, 4.77 µM; in the series on PC-3, 7.64 µM. In addition, in the series with MDA-MB-231 [10], the “Ratio IC50” value was 2.4 - 12.2.
The corresponding values for `COc1cc(/C=C/C(O)=C/C(=O)/C=C/c2ccc(OC(=O)C(C)(CO)CO)c(OC)c2)ccc1O` are 5.94 µM, 15.5 µM, 17.4 µM and 2.4 - 12.2.
As to `COc1cccc2c1C(=O)c1c(O)c3c(c(O)c1C2=O)C[C@@](O)(C(=O)CO)C[C@@H]3O[C@H]1C[C@H](N)[C@H](O)[C@H](C)O1` [DOXORUBICIN], the Activity result in the series with Mus musculus [13] is given as “Non-Toxic”; in the series on Mus musculus [14], “Non-Toxic”; in the series with MDA-MB-231 [15] it was 60%; in the series with Mus musculus [16] it was “Non-Toxic”.
Take `CCC(CC)(C(=O)/C=C/c1ccc(OC(=O)C(C)(CO)CO)c(OC)c1)C(=O)/C=C/c1ccc(OC(=O)C(C)(CO)CO)c(OC)c1`: the IC50 with MDA-MB-231 [2] was found to be 1.78 µM; in the series on HCT-116, 1.74 µM; in the series on PC-3, 2.16 µM. Moreover, the “Ratio IC50” value in the series on MDA-MB-231 [10] is listed as 2.4 - 12.2.
The corresponding values for `COc1cc(/C=C/C(=O)C(Cc2ccccc2)(Cc2ccccc2)C(=O)/C=C/c2ccc(OC(=O)C(C)(CO)CO)c(OC)c2)ccc1OC(=O)C(C)(CO)CO` are 2.11 µM, 3.88 µM, 7.28 µM and 2.4 - 12.2.
With `COc1ccc(/C=C/C(O)=C/C(=O)/C=C/c2ccc(OC)c(OC(=O)C(C)(CO)CO)c2)cc1O`, the IC50 in the series with MDA-MB-231 [2] worked out at 2.29 µM; in the series on HCT-116, 1.95 µM; with PC-3, 2.32 µM. For the same compound, in the series with MDA-MB-231 [10], the “Ratio IC50” value is 2.4 - 12.2.

The record behind these values is ChEMBL document CHEMBL4038282 (Eur J Med Chem, 2017).
